Experimental findings from US8993585B2, “Cyclic amine substituted pyrimidinediamines as PKC inhibitors” (Rigel Pharmaceuticals, Inc., priority 2007, dated 2015) are described below.

Usually IC50 stands for the concentration needed to halve the response being measured.

One test deals with T1, PKC epsilon (Homo sapiens, UniProt Q02156).
T1 construct: purchased Upstate Biotechnologies, Temecula, CA 14-518
T1 sequence (Q02156 1-737): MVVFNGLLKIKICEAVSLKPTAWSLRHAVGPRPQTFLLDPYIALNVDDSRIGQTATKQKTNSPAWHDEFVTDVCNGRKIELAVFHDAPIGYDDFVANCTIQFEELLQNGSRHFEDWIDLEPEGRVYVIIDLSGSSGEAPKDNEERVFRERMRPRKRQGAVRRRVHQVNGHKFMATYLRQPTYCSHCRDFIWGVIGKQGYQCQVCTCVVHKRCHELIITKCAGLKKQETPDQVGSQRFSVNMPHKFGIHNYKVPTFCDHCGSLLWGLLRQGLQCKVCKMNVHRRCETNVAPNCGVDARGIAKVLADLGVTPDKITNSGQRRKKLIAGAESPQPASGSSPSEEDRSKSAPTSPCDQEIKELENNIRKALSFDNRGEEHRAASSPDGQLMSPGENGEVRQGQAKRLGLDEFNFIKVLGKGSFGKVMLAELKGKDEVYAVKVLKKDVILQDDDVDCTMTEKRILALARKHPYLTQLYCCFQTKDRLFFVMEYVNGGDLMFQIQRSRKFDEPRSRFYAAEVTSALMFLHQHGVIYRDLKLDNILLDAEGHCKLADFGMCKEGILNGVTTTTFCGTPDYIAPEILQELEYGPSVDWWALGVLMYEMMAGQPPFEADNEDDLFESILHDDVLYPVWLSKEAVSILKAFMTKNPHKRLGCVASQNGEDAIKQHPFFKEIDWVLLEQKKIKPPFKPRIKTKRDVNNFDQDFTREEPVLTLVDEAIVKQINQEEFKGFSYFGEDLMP
The experiment in a line: PKC assay, fluorescence polarization (Example 2), PKC epsilon. It is filed as biochemical. To be noted: 5 μM ATP. As to the method: The inhibition of PKC activity was measured by monitoring the production of phosphorylated peptide by fluorescence polarization at different concentrations of the inhibitor. Reactions were carried out in 96-well plate format with a total volume of 20 μL containing 20 mM HEPES, pH 7.4, 5 mM MgCl2, 0.2 mM CaCl2, 1 mM DTT, 0.02% Brij-35, 0.1 mg/mL phosphatidylserine, 0.02 mg/mL dioleoyl-sn-glycerol and 5 μM each of ATP and the peptide substrate. Compounds were first diluted serially in DMSO and then transferred to a solution containing the above concentrations of HEPES, MgCl2, CaCl2, DTT, and Brij-35 to yield 5× compound solutions in 2% DMSO, which was then added to the reaction solution. Reactions were initiated by the addition of PKC at a typical concentration as described in Table VI, and then allowed to incubate at room temperature for 20 min. At the end of this time, a combination of quench (EDTA) and detection (peptide tracer and antibody) reagents was added using the protocol of Invitrogen P2748.

For a further test, the target named is T2, PKC theta (Homo sapiens, UniProt Q04759).
T2 construct: purchased Upstate Biotechnologies, Temecula, CA 14-444
The experiment in a line: PKC assay, fluorescence polarization (Example 2), PKC theta. The format is biochemical. To be noted: 5 μM ATP. In outline: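 Phosphorylated peptide product detected by fluorescence polarization, with EDTA quench plus peptide tracer and antibody. Reaction in 20 mM HEPES pH 7.4, 5 mM MgCl2, 0.2 mM CaCl2, 1 mM DTT, 0.02% Brij-35, phosphatidylserine and dioleoyl-sn-glycerol, with 5 μM ATP and 5 μM peptide. Started with enzyme, 20 min at room temperature.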

Another test concerns Human primary T cells. The test is described as follows: IL-2 ELISA, Human Primary T Cell, Anti-CD3+CD28+ (Example 3). It is filed as cell-based. To be noted: anti-CD3+CD28 stimulation. The procedure, abridged: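 IL-2 was read by ELISA after stimulation on wells pre-coated with 1 ug/ml αCD3 and 5 μg/ml αCD28. Before this, 100,000 human primary T cells per well spent 1 h at 37 °C with test compound in Yssel's medium. The counter-screen replaced antibody stimulation with PMA (0.5 ng/ml final) and ionomycin (0.1 uM final).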
(In general: An ELISA detects its analyte on a solid surface through an enzyme-linked reagent.)

T2 sequence (Q04759 whole entry): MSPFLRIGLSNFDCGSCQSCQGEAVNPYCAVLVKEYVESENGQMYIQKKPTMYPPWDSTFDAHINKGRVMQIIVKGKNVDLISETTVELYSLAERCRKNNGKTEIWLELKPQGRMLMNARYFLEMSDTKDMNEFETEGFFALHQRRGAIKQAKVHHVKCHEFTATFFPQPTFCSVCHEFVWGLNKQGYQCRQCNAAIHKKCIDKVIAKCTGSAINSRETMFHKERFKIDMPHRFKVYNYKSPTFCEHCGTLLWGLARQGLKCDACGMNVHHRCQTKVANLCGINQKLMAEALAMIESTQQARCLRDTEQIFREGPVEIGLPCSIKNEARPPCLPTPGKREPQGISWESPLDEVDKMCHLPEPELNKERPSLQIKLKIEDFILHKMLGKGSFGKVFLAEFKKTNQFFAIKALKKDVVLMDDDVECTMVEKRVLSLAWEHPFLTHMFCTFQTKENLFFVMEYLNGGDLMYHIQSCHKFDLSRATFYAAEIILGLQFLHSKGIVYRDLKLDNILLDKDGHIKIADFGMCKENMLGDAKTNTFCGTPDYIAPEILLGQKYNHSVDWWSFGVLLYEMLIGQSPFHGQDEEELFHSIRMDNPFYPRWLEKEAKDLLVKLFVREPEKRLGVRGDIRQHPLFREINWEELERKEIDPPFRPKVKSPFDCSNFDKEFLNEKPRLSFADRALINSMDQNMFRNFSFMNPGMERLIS

Turning to `COc1cc(Nc2ncc(F)c(NC3CC(C)(C)N(C)C(C)(C)C3)n2)cc(OC)c1` [Compound I-129], the IC50 at PKC epsilon amounted to 26.8 nM; on PKC theta it was 4.19 nM; in the test with Human primary T cells (Homo sapiens, T-cell, 24 h) it was 214 nM.
On to `CN1C(C)(C)CC(Nc2nc(Nc3ccc(C#N)c(C#N)c3)ncc2F)CC1(C)C` [Compound I-141], for which the IC50 was determined as 249 nM at PKC epsilon; 3.29 nM at PKC theta; 245 nM with Human primary T cells (Homo sapiens, T-cell, 24 h).
For `CCOc1ccc(Nc2ncc(C#N)c(NC3CC(C)(C)N(C)C(C)(C)C3)n2)cc1-n1nnnc1CC` [Compound I-460], the IC50 on PKC epsilon was 60 nM; on PKC theta, 0.4 nM; in the test on Human primary T cells (Homo sapiens, T-cell, 24 h) it was 30 nM.
On to `CCN1CCN(c2ccc(Nc3ncc(F)c(NC4CC(C)(C)N(C)C(C)(C)C4)n3)cc2Cl)CC1` [Compound I-248], for which the IC50 on PKC epsilon came out at 13.4 nM; on PKC theta, 2.75 nM; with Human primary T cells (Homo sapiens, T-cell, 24 h), 110 nM.
The like results for `CN1C(C)(C)CC(Nc2nc(Nc3ccc(Cl)c(C#N)c3)ncc2Cl)CC1(C)C` [Compound I-165] were, in that order, 311 nM, 2.56 nM and 292 nM.
The like results for `Cc1ccc(Nc2ncc(F)c(NC3CC(C)(C)N(C)C(C)(C)C3)n2)cc1-c1ccncc1` [Compound I-187] were, in that order, 51 nM, 4.92 nM and 305 nM.
The like results for `CN1C(C)(C)CC(Nc2nc(Nc3ccc(-c4cccnc4)c(C(F)(F)F)c3)ncc2F)CC1(C)C` [Compound I-112] were, in that order, 25.6 nM, 8.91 nM and 73.3 nM.
In the case of `CSc1nnnn1-c1cccc(Nc2ncc(F)c(NC3CC(C)(C)NC(C)(C)C3)n2)c1` [Compound I-416], the IC50 on PKC epsilon was 13 nM; at PKC theta, 3.3 nM; in the test with Human primary T cells (Homo sapiens, T-cell, 24 h), 80 nM.
The like results for `CN1C(C)(C)CC(Nc2nc(Nc3cccc(Br)c3)ncc2F)CC1(C)C` [Compound I-104] were, in that order, 62.8 nM, 15.8 nM and 79.8 nM.
Take `CN1C(C)(C)CC(Nc2nc(Nc3ccc(N4CCOCC4)c(C(F)(F)F)c3)ncc2F)CC1(C)C` [Compound I-224]: the IC50 on PKC epsilon stood at 19 nM; at PKC theta, 29.1 nM; in the test with Human primary T cells (Homo sapiens, T-cell, 24 h), 112 nM.
The like results for `CCCN1CCN(c2ccc(Nc3ncc(F)c(NC4CC(C)(C)N(C)C(C)(C)C4)n3)cc2C(F)(F)F)CC1` [Compound I-247] were, in that order, 66.9 nM, 19.9 nM and 131 nM.
The like results for `CN1C(C)(C)CC(Nc2nc(Nc3ccc(OC(F)F)c(OC(F)F)c3)ncc2F)CC1(C)C` [Compound I-344] were, in that order, 40.7 nM, 6.54 nM and 205 nM.
The like results for `COc1cc(Nc2ncc(C(F)(F)F)c(NC3CC(C)(C)N(C)C(C)(C)C3)n2)cc(-n2cnnn2)c1` [Compound I-356] were, in that order, 43 nM, 7.26 nM and 96 nM.
As to `Cc1ccc(Nc2ncc(C#N)c(NC3CC(C)(C)NC(C)(C)C3)n2)cc1-n1cnnn1` [Compound I-461], the IC50 on PKC epsilon is 50 nM; on PKC theta, 0.8 nM; with Human primary T cells (Homo sapiens, T-cell, 24 h) it was 230 nM.
The like results for `COc1cc(Nc2ncc(C#N)c(NC3CC(C)(C)N(C)C(C)(C)C3)n2)cc(OC)c1` [Compound I-364] were, in that order, 27.8 nM, 4.1 nM and 270 nM.
The like results for `CN1C(C)(C)CC(Nc2nc(Nc3ccc(-c4ccncc4)c(C(F)(F)F)c3)ncc2F)CC1(C)C` [Compound I-96] were, in that order, 81.7 nM, 4.56 nM and 177 nM.
The like results for `Cc1cc(Nc2ncc(F)c(NC3CC(C)(C)N(C)C(C)(C)C3)n2)ccc1-c1cccnc1` [Compound I-121] were, in that order, 15.8 nM, 23.7 nM and 268 nM.
Consider `CCN1C(=O)C(C)(C)Oc2cc(Nc3ncc(C#N)c(NC4CC(C)(C)N(C)C(C)(C)C4)n3)ccc21` [II-45], for which the IC50 at PKC epsilon came out at 179 nM; on PKC theta, 1.8 nM; in the test with Human primary T cells (Homo sapiens, T-cell, 24 h), 103 nM.
The like results for `CN1C(C)(C)CC(Nc2nc(Nc3ccc(N4CCCC4)c(C#N)c3)ncc2F)CC1(C)C` [Compound I-200] were, in that order, 41.9 nM, 1.11 nM and 185 nM.
The like results for `CCOc1ccc(Nc2ncc(F)c(NC3CC(C)(C)NC(C)(C)C3)n2)cc1-n1nnnc1CC` [Compound I-415] were, in that order, 13 nM, 0.5 nM and 60 nM.
The like results for `CCN1CCN(c2ccc(Nc3ncc(F)c(NC4CC(C)(C)N(C)C(C)(C)C4)n3)cc2C(F)(F)F)CC1` [Compound I-246] were, in that order, 9.94 nM, 3.37 nM and 117 nM.
On to `CN1C(C)(C)CC(Nc2nc(Nc3ccc(CN4CCOCC4)c(C#N)c3)ncc2F)CC1(C)C` [Compound I-450], for which the IC50 at PKC epsilon turned out to be 9 nM; at PKC theta, 2.5 nM; in the test with Human primary T cells (24 hours), 260 nM.
In the case of `COc1cc(Nc2ncc(Cl)c(NC3CC(C)(C)N(C)C(C)(C)C3)n2)cc(OC)c1` [Compound I-340], the IC50 amounted to 15.6 nM at PKC epsilon; 2.81 nM on PKC theta; 159 nM with Human primary T cells (Homo sapiens, T-cell, 24 h).
For the compound `Cc1nnnn1-c1cccc(Nc2ncc(C#N)c(NC3CC(C)(C)NC(C)(C)C3)n2)c1` [Compound I-463], the IC50 on PKC epsilon worked out at 125 nM; on PKC theta, 3.6 nM; in the test with Human primary T cells (Homo sapiens, T-cell, 24 h), 590 nM.
The like results for `CN1C(C)(C)CC(Nc2nc(Nc3ccc(N4CCOCC4)c(OC(F)F)c3)ncc2F)CC1(C)C` [Compound I-235] were, in that order, 16.8 nM, 1.27 nM and 156 nM.
The like results for `COc1ccc(Nc2ncc(F)c(NC3CC(C)(C)N(C)C(C)(C)C3)n2)cc1-n1c(C)ccc1C` [Compound I-348] were, in that order, 100 nM, 3.66 nM and 172 nM.
The like results for `Cc1ccc(Nc2ncc(Cl)c(NC3CC(C)(C)N(C)C(C)(C)C3)n2)cc1C#N` [Compound I-168] were, in that order, 32.7 nM, 2.72 nM and 120 nM.
Take `COc1ccc(Nc2ncc(F)c(NC3CC(C)(C)N(C)C(C)(C)C3)n2)cc1OC(F)F` [Compound I-239]: the IC50 turned out to be 54.6 nM on PKC epsilon; 2.06 nM at PKC theta; 99.1 nM in the test on Human primary T cells (Homo sapiens, T-cell, 24 h).
Regarding `CCCN1CCN(c2cc(Nc3ncc(F)c(NC4CC(C)(C)N(C)C(C)(C)C4)n3)ccc2C(F)(F)F)CC1` [Compound I-218], the IC50 came out at 18.4 nM at PKC epsilon; 6.52 nM on PKC theta; 216 nM in the test on Human primary T cells (Homo sapiens, T-cell, 24 h).
Consider `CN1C(C)(C)CC(Nc2nc(Nc3cccc(C#N)c3)ncc2C#N)CC1(C)C` [Compound I-97], for which the IC50 on PKC epsilon worked out at 175 nM; on PKC theta, 1.58 nM; with Human primary T cells (Homo sapiens, T-cell, 24 h), 289 nM.
The like results for `COc1ccc(Nc2ncc(Cl)c(NC3CC(C)(C)N(C)C(C)(C)C3)n2)cc1OC(F)F` [Compound I-341] were, in that order, 53.2 nM, 0.55 nM and 45.6 nM.
For the compound `COc1ccc(Nc2ncc(F)c(NC3CC(C)(C)N(C)C(C)(C)C3)n2)cc1C(F)(F)F` [Compound I-147], the IC50 was found to be 115 nM on PKC epsilon; 8.01 nM on PKC theta; 168 nM in the test on Human primary T cells (Homo sapiens, T-cell, 24 h).
